{
  "source": "patent US6733996B2",
  "about": "“Methods for regulating gene expression using light” (Trustees of Dartmouth College, priority 2002, dated 2004)",
  "molecular_target": "T1, WC-1/WC-2 (White Collar Complex) (Neurospora crassa, UniProt Q01371)",
  "T1 construct": "in vitro transcribe/translate full-length WC-1 using pAF60 as template and full length WC-2 using pGEM®/WC-2 as template; made in house; host or cells: cell-free: TNT-Coupled Reticulocyte Lysate system (Promega), templates pAF60 (WC-1) and pGEM/WC-2",
  "T1 sequence (Q01371 whole entry)": "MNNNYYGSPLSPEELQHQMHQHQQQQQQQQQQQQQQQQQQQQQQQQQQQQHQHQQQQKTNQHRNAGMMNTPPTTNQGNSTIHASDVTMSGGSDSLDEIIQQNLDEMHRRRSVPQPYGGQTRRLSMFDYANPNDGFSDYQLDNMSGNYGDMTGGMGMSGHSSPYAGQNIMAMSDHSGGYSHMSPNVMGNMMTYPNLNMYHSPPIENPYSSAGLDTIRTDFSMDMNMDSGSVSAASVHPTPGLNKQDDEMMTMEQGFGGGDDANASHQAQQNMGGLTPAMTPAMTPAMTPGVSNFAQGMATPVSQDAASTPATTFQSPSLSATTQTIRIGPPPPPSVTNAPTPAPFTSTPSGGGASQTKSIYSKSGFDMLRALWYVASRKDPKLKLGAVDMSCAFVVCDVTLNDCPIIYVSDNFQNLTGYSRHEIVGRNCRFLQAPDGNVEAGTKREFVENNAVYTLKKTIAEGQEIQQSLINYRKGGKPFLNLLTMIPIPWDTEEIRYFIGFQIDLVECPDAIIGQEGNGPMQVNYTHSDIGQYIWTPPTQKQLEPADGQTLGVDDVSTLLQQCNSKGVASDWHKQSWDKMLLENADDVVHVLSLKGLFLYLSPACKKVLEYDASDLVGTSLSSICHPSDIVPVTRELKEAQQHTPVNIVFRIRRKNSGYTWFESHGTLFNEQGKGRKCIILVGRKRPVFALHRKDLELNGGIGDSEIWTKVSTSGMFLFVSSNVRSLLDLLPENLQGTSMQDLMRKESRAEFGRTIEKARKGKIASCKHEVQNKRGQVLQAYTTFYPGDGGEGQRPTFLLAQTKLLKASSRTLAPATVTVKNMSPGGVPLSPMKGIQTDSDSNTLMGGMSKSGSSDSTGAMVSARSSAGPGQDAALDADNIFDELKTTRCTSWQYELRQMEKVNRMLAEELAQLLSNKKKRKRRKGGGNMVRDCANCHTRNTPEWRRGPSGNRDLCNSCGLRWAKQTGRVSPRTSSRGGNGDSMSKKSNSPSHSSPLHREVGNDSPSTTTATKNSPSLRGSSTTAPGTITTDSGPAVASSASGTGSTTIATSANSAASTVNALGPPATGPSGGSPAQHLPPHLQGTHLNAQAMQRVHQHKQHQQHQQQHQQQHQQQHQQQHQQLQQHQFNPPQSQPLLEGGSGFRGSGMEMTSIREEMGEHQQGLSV",
  "T1 sequence (P78714 whole entry, further chain)": "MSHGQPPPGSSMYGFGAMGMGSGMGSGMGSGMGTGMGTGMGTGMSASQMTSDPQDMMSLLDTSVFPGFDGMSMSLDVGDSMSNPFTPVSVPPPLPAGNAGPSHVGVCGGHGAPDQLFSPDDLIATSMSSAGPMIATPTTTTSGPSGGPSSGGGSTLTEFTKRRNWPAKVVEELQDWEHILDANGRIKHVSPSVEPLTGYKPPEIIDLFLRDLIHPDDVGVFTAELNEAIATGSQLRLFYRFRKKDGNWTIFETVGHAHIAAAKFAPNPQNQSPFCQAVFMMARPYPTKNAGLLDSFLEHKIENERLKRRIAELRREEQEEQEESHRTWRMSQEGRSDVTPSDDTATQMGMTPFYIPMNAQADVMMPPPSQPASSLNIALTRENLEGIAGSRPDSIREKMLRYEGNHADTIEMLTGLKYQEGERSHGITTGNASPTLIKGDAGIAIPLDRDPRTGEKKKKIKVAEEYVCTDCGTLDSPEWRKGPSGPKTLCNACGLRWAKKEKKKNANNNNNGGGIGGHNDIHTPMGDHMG",
  "experiment": "Electrophoretic mobility shift assay of in vitro-translated WC-1 and WC-2 binding to frq LRE probe, with or without flavin cofactor and light",
  "conditions": "for Average amount of faster migrating complex ± SEM / Average amount of slower migrating complex ± SEM: +FAD (1 mM in translation reaction), in vitro-translated WC-1 and WC-2, densitometry; for Light regulation of LRE binding of in vitro-translated WC-1/WC-2: flavin added to the WC-1 translation reaction, 1 mM",
  "description": "In vitro coupled transcription/translation was conducted to produce WC-1 and WC-2 proteins for subsequent use in binding reactions. WC-1 and WC-2 together were able to bind to the LREs as not just one, but two distinct complexes with mobilities similar to those seen using nuclear extracts. […] These complexes were not seen when either protein was used alone or when unprogrammed lysate was used.\nIn vitro translation experiments and subsequent binding reactions were repeated, this time adding FMN or flavin adenine dinucleotide (FAD) to the WC-1 translation reaction. FAD is the flavin cofactor for both the blue light-sensing cryptochromes (Cashmore, et al. (1999) Science 284:760) and the Euglena photoactivated adenyl cyclase (Iseki, et al. (2001) Nature 415:1047).\nWhen FAD was combined with WC-1 and WC-2, light caused a marked increase in the amount of slower migrating complex relative to the reactions not treated with light. Furthermore, a marked increase in the slower migrating complex was observed, as compared to reactions lacking FAD treated with or without light. […] The addition of FAD confers light responsiveness to the WCC, similar to that seen with the nuclear extracts. In the dark, a faster migrating WC-1/WC-2 dimeric complex dominates, yielding in the presence of light to a larger, slower migrating WC-1/WC-2 multimeric complex. WC-1 with FAD, exposed to light in the absence of WC-2, can initiate the mobility shift when subsequently combined in the dark with WC-2. Furthermore, WC-1 can be reconstituted with free FAD after in vitro translation. Thus, it is WC-1 that is the initial active protein partner in mediating the photoresponse.\nThe probes consisted of two oligonucleotides of equal length annealed together and end-labeled using T4 polynucleotide kinase and [^γ-32P]ATP. Unincorporated ATP was removed using a BIO-GEL® P-30 chromatography column (BIO-RAD®, Hercules, Calif.), and probe was diluted to a final concentration of 0.018 μM. Oligonucleotide pairs were annealed for use as probe or unlabeled competitor. Distal LRE probe, the unrelated 42 bp competitor, and the mutated distal LRE competitor were generated with oligonucleotide pairs ACF57/ACF58, ACF40/ACF48 and ACF67/ACF68, respectively. The proximal LRE probe and mutated proximal LRE competitor were generated with oligonucleotide pairs ACF62/ACF63 and ACF69/ACF70, respectively.\nBinding reactions using nuclear protein extracts contained 1× binding buffer, […], 0.1 μg poly(dI-dC), 1 μl probe, 0.5 μl of normal rabbit sera (Pocono Rabbit Farm, Canadensis, Pa.), and 3 μg of nuclear protein extract, which was added last to the binding reactions, in a total volume of 20 μl. In reactions that contained antisera, 1 μl anti-WC-1, 1 μl anti-WC-2, or 0.5 μl anti-FRQ was used. Binding reactions using in vitro translated proteins contained 1× binding buffer, 1 μg poly(dI-dC), 1 μl probe, and 6 μl of the in vitro translation reaction in a total volume of 20 μl . Binding reactions were incubated for 30 minutes on ice prior to electrophoresis at 4° C. on nondenaturing 4% polyacrylamide gels containing 0.5×TBE and 2.5% (v/v) glycerol. Gels were dried and visualized using a PhosphorImager and IMAGEQUANT® software (Molecular Dynamics, Sunnyvale, Calif.). Binding reactions and gel electrophoreses were performed under red lights.\nTNT®-Coupled Reticulocyte Lysate system (PROMEGA®, Madison, Wis.) was used according to the manufacturer's directions to in vitro transcribe/translate full-length WC-1 using pAF60 as template and full length WC-2 using pGEM®/WC-2 as template. 8 μM ZnCl2 was added to each reaction. Where indicated, FAD (SIGMA®, St. Louis, Mo.) and FMN (SIGMA®, St. Louis, Mo.) were added to a final concentration of 1 mM. Reactions were conducted under red lights.",
  "data": [
    {"smiles": "Cc1cc2nc3c(=O)[nH]c(=O)nc-3n(C[C@H](O)[C@H](O)[C@H](O)COP(=O)(O)OP(=O)(O)OC[C@H]3O[C@@H](n4cnc5c(N)ncnc54)[C@H](O)[C@@H]3O)c2cc1C", "note": "[FAD, flavin adenine dinucleotide]", "values": [
      {"measurement": "Average amount of faster migrating complex ± SEM", "setting": "Dark", "value": "334119 ± 43086"},
      {"measurement": "Average amount of slower migrating complex ± SEM", "setting": "Dark", "value": "56912 ± 3055"},
      {"measurement": "Average amount of faster migrating complex ± SEM", "setting": "Light", "value": "264723 ± 22687"},
      {"measurement": "Average amount of slower migrating complex ± SEM", "setting": "Light", "value": "237163 ± 9706"},
      {"measurement": "Light regulation of LRE binding of in vitro-translated WC-1/WC-2", "value": "conferred light sensitivity"}
    ]},
    {"smiles": "Cc1cc2nc3c(=O)[nH]c(=O)nc-3n(C[C@H](O)[C@H](O)[C@H](O)COP(=O)(O)O)c2cc1C", "note": "[FMN, flavin mononucleotide]", "values": [
      {"measurement": "Light regulation of LRE binding of in vitro-translated WC-1/WC-2", "value": "No light regulation of binding"}
    ]}
  ]
}
